Laboratory results from EP1658776A1, “Method for producing live food water organisms in the presence of an antibacterial” (priority 2004, dated 2006).
Marks after values point to notes of the source that are not given here.

Tests used:
gram-positive bacteria = details: against gram-positive bacteria; cited from earlier work
Vibrio sp. [1] = assay: Vibrio reduction by silver combined with berberine during hatching (Example 4, Figure 2); type: cell-based
Protocol: GSL-cysts were incubated at 2g cysts /l, following standard procedures, i.e.: salinity of 25 g/l, temperature of 30°C. Continuous illumination and air bubbling was provided. Silver nitrate, thiosulphate and berberine were added in different concentrations to the hatching medium. After 24 hours, the hatching percentage was calculated and samples of the hatching medium were taken for determination of Vibrio sp. on TCBS.

Vibrio sp. [2] = assay: Vibrio count on TCBS in hatching medium (Example 1); type: cell-based; details: for TCBS (cfu/ml): 24h incubation
Protocol: (§1) 1000 g commercially available dry cysts from Great Salt Lake (GSL-strain) were sprayed with 20 ml solution to which 2.43g or 2.02g AgNO3 is added and another 1000 g cysts were sprayed with 20 ml to which 14.20g or 11.81g thiosulphate (Na2S2O3.5(H2O)) is added (in a ratio of 4 mol thiosulphate to 1 mol AgNO3) to obtain respectively 1.50 or 1.25 mg Ag/l in the hatching medium, after incubation of 2g treated cysts therein. The cysts were gently mixed for 15-30 minutes while spraying. Both fractions were mixed together in a ratio of (1:1). The cysts were vacuum packed and stored at different temperatures (4°C, 20°C and 30°C). Cysts from the same batch were kept as a control. After 4 weeks they were incubated at 2g (treated) cysts /l, following standard procedures, i.e.: salinity of 25 g/I, temperature of 30°C. Continuous illumination and air bubbling was provided. After 24 hours of incubation, samples of the hatching medium were taken for determination of the total count on Marine agar (MA) and Vibrio sp. on TCBS (specific growth medium for Vibrio sp.). The hatching percentage (percentage of cysts that hatch on the total of full cysts) of the cysts was calculated. Tabel 1: Hatching percentage (HP) of cysts, number of colony forming units (cfu) per ml of hatching medium on MA and on TCBS after 24h incubation of Artemia cysts of control cysts and cysts with different amounts of AgNO3 (expressed as mg Ag/l hatching medium). Each value is the average of three counts.

[3] = tested on: marine heterotrophic bacterial population; assay: Total bacterial count on Marine agar in hatching medium (Example 1); type: cell-based; details: for MA (cfu/ml): 24h incubation
Protocol: as §1

Artemia cysts [4] = assay: Hatching percentage of treated cysts after storage at different temperatures (Example 2, Figures 1a/1b); type: in vivo, Artemia (GSL-strain); details: AgNO3 (and thiosulphate) applied on cysts; 1 to 8 weeks of storage at 20° C or more
Protocol: 1000 g commercially available dry cysts (GSL-strain) were sprayed with a 20 ml solution to which 2.43g AgNO3 and another 1000g cysts were sprayed 20 ml solution to which 14.20g thiosulphate (Na2S2O3.5(H2O)) was added. The cysts were gently mixed for 15 - 30 minutes while spraying. Both fractions of cysts were mixed together in a ratio of [1:1]. The cysts were vacuum packed and stored at different temperatures (4°C, 20°C and 30°C) for 1 to 8 weeks. At different time intervals (1 week, 2 weeks, 4 weeks and 8 weeks) they were incubated at 2g (treated) cysts /l following standard procedures, i.e.: salinity of 25 g/l, temperature of 30°C. Continuous illumination and air bubbling was provided. After 24 hours, the hatching percentage (percentage of cysts that hatch on the total of full cysts) was calculated. These values were compared with a former batch of cysts on which 1.4 mg/l of the bactericidal isothiazolin derivative comprising 5-chloro-2-methyl-4-isothiazolin-3-one and 2-methyl-4-isothiazolin-3-one was applied.

oyster embryos = details: natural seawater; cited from earlier work
pathogenic Vibrio sp. = assay: Vibrio in shrimp tanks fed Artemia nauplii enriched in the presence of Ag; type: in vivo; details: Artemia nauplii enriched in the presence of Ag fed for 14 days to larval shrimp; versus control enrichment
Vibrio species = assay: Vibrio counts on TCBS in hatching medium, silver with or without thiosulphate (Example 3); type: cell-based, Vibrio sp.; details: 24 hours; for Vibrio counts on TCBS (cfu/ml) With thiosulphate: silver nitrate:thiosulphate 1:4
Protocol: (§2) GSL-cysts were incubated at 2g cysts /l, following standard procedures, i.e.: salinity of 25 g/l, temperature of 30°C. Continuous illumination and air bubbling was provided. Different concentrations of silver nitrate were added to the hatching medium. Thiosulphate was added to compare its effect on the hatching of Artemia and reduction of Vibrio sp. When thiosulphate was added, the molecular ratio of silver nitrate to thiosulphate was (1:4). After 24 hours, samples of the hatching medium were taken for determination of Vibrio sp. on TCBS and hatching percentage was calculated. Table 2: Effect of thiosulphate in combination with Ag, on hatching percentage of Artemia and on the amount of Vibrio species in the hatching medium

crab larvae = details: natural seawater; cited from earlier work
Vibrio sp. [5] = assay: Vibrio count on TCBS in enrichment medium (Example 5); type: cell-based; details: after 24 hours enrichment; compared to the non treated culture medium
Protocol: Artemia nauplii Instar I were harvested from the hatching tank, rinsed and incubated in cylindrical conical tanks with 90L water with a salinity of 35 g/l and a temperature of 28°C. The pH was controlled at 7.5. Stocking density of the nauplii was 300 nauplii / ml. The enrichment product 'Easy DHA Selco' which is a commercially available Seleco™-type enrichment product was added at the start of the enrichment at 600 mg/l. The dose of the silver (silver thiosulphate) in three of the six enrichment tanks was 1.5 mg Ag /l. In the three other tanks, Ag was not added. Samples of Artemia nauplii to analyse the levels of HUFA were taken at the end of the enrichment, thus 24 hours after adding the enrichment diets. At the same time, samples of the enrichment medium were taken for determination of Vibrio sp. on TCBS. Table 3: Highly unsaturated fatty acid levels (mg/g DW) of Artemia nauplli Instar II and bacterial concentrations (cfu/ml) on marine agar and TCBS of the enrichment medium after 24 hours enrichment with and without silver.

Artemia cysts [6] = assay: Hatching percentage of Artemia cysts sprayed with silver nitrate / thiosulphate (Example 1); type: in vivo, Artemia (GSL-strain); details: 24h incubation
Protocol: as §1

mussel = details: natural seawater; cited from earlier work
Artemia = assay: Hatching percentage with silver in hatching medium, with or without thiosulphate (Example 3); type: in vivo, Artemia (GSL-cysts); details: for Hatching percentage (%) Without thiosulphate / Hatching percentage (%) With thiosulphate: 24 hours; for Hatching percentage (%) With thiosulphate: silver nitrate:thiosulphate 1:4
Protocol: as §2

[7] = after 24 hours, summary of Table 1
[8] = 1.25 mg/l Ag (AgNO3 + thiosulphate on cysts), storage 4°C
[9] = 1.25 mg/l Ag (AgNO3 + thiosulphate on cysts), storage 20°C
[10] = 1.25 mg/l Ag (AgNO3 + thiosulphate on cysts), storage 30°C
[11] = 1.50 mg/l Ag (AgNO3 + thiosulphate on cysts), storage 4°C
[12] = 1.50 mg/l Ag (AgNO3 + thiosulphate on cysts), storage 20°C
[13] = 1.50 mg/l Ag (AgNO3 + thiosulphate on cysts), storage 30°C

COc1ccc2cc3[n+](cc2c1OC)CCc1cc2c(cc1-3)OCO2 [berberine, reference compound]
inhibitory activity (gram-positive bacteria): 50 to 400 mg/L | reduction in Vibrio species (Vibrio sp. [1]; berberine 0.1 mg/l to 2.5 mg/l added together with silver 0.1 mg Ag per liter): some reduction in Vibrio species is observed

silver thiosulphate [silver nitrate and thiosulphate]
TCBS (Vibrio sp.) in the medium with treated cysts (Vibrio sp. [2]; [7]): < 300 cfu/ml | total counts on Marine Agar [3, 7]: not affected

O=[N+]([O-])[O-].[Ag+] [Ag, silver nitrate]
TCBS (cfu/ml) (Vibrio sp. [2]; [8]): <3.00 x 10^2 cfu/ml | TCBS (cfu/ml) (Vibrio sp. [2]; [9]): 5.66 x 10^3 cfu/ml | TCBS (cfu/ml) (Vibrio sp. [2]; [10]): <3.00 x 10^2 cfu/ml | TCBS (cfu/ml) (Vibrio sp. [2]; [11]): <3.00 x 10^2 cfu/ml | TCBS (cfu/ml) (Vibrio sp. [2]; [12]): <3.00 x 10^2 cfu/ml | TCBS (cfu/ml) (Vibrio sp. [2]; [13]): <3.00 x 10^2 cfu/ml | Hatching percentage (Artemia cysts [4]): did not decrease | toxicity levels (EC50) (oyster embryos): 0.022 mg Ag/l | pathogenic Vibrio sp. in the shrimp tanks (pathogenic Vibrio sp.): a reduction in pathogenic Vibrio sp. was noticed | Vibrio counts on TCBS (cfu/ml) Without thiosulphate (Vibrio species; Ag 0.1 mg/l as silver nitrate): 7.96 x 10^6 cfu/ml | Vibrio counts on TCBS (cfu/ml) With thiosulphate (Vibrio species; Ag 0.1 mg/l): 1.47 x 10^5 cfu/ml | Vibrio counts on TCBS (cfu/ml) Without thiosulphate (Vibrio species; Ag 0.25 mg/l as silver nitrate): 1.79 x 10^5 cfu/ml | Vibrio counts on TCBS (cfu/ml) With thiosulphate (Vibrio species; Ag 0.25 mg/l): 1.70 x 10^4 cfu/ml | Vibrio counts on TCBS (cfu/ml) Without thiosulphate (Vibrio species; Ag 0.5 mg/l as silver nitrate): 3.48 x 10^4 cfu/ml | Vibrio counts on TCBS (cfu/ml) With thiosulphate (Vibrio species; Ag 0.5 mg/l): <3.00 x 10^2 cfu/ml | Vibrio counts on TCBS (cfu/ml) Without thiosulphate (Vibrio species; Ag 0.75 mg/l as silver nitrate): 6.23 x 10^2 cfu/ml | Vibrio counts on TCBS (cfu/ml) Without thiosulphate (Vibrio species; Ag 1.0 mg/l as silver nitrate): 4.80 x 10^2 cfu/ml | Vibrio counts on TCBS (cfu/ml) With thiosulphate (Vibrio species; Ag 1.0 mg/l): <3.00 x 10^2 cfu/ml | Vibrio counts on TCBS (cfu/ml) Without thiosulphate (Vibrio species; Ag 1.25 mg/l as silver nitrate): <3.00 x 10^2 cfu/ml | Vibrio counts on TCBS (cfu/ml) Without thiosulphate (Vibrio species; Ag 1.5 mg/l as silver nitrate): <3.00 x 10^2 cfu/ml | Vibrio counts on TCBS (cfu/ml) With thiosulphate (Vibrio species; Ag 1.5 mg/l): <3.00 x 10^2 cfu/ml | Vibrio counts on TCBS (cfu/ml) Without thiosulphate (Vibrio species; Ag 1.75 mg/l as silver nitrate): <3.00 x 10^2 cfu/ml | Vibrio counts on TCBS (cfu/ml) Without thiosulphate (Vibrio species; Ag 2.0 mg/l as silver nitrate): <3.00 x 10^2 cfu/ml | Vibrio counts on TCBS (cfu/ml) With thiosulphate (Vibrio species; Ag 2.0 mg/l): <3.00 x 10^2 cfu/ml | Vibrio counts on TCBS (cfu/ml) With thiosulphate (Vibrio species; Ag 2.5 mg/l): <3.00 x 10^2 cfu/ml | Vibrio counts on TCBS (cfu/ml) With thiosulphate (Vibrio species; Ag 5.0 mg/l): <3.00 x 10^2 cfu/ml | Vibrio counts on TCBS (cfu/ml) With thiosulphate (Vibrio species; Ag 10.0 mg/l): <3.00 x 10^2 cfu/ml | MA (cfu/ml) [3, 8]: 2.69 x 10^7 cfu/ml | MA (cfu/ml) [3, 9]: 1.29 x 10^7 cfu/ml | MA (cfu/ml) [3, 10]: 3.17 x 10^7 cfu/ml | MA (cfu/ml) [3, 11]: 1.20 x 10^7 cfu/ml | MA (cfu/ml) [3, 12]: 8.07 x 10^6 cfu/ml | MA (cfu/ml) [3, 13]: 6.55 x 10^6 cfu/ml | toxicity levels (EC50) (crab larvae): 0.055 mg Ag/l | Vibrio count on TCBS (Vibrio sp. [5]): significantly less | HP (%) (Artemia cysts [6]; [9]): 80.3% | HP (%) (Artemia cysts [6]; [10]): 82.6% | HP (%) (Artemia cysts [6]; 1.25 mg/l Ag in hatching medium (AgNO3 + thiosulphate 1:4 mol on cysts), cysts stored 4 weeks at 4°C): 84.5% | HP (%) (Artemia cysts [6]; [11]): 81.4% | HP (%) (Artemia cysts [6]; [12]): 82.2% | HP (%) (Artemia cysts [6]; [13]): 81.2% | toxicity levels (EC50) (mussel): 0.014 mg Ag/l | Hatching percentage (%) Without thiosulphate (Artemia; Ag 0.1 mg/l as silver nitrate): 77.1% | Hatching percentage (%) With thiosulphate (Artemia; Ag 0.1 mg/l): 79.9% | Hatching percentage (%) Without thiosulphate (Artemia; Ag 0.25 mg/l as silver nitrate): 76.6% | Hatching percentage (%) With thiosulphate (Artemia; Ag 0.25 mg/l): 78.6% | Hatching percentage (%) Without thiosulphate (Artemia; Ag 0.5 mg/l as silver nitrate): 78.3% | Hatching percentage (%) With thiosulphate (Artemia; Ag 0.5 mg/l): 76.0% | Hatching percentage (%) Without thiosulphate (Artemia; Ag 0.75 mg/l as silver nitrate): 73.9% | Hatching percentage (%) Without thiosulphate (Artemia; Ag 1.0 mg/l as silver nitrate): 72.5% | Hatching percentage (%) With thiosulphate (Artemia; Ag 1.0 mg/l): 74.4% | Hatching percentage (%) Without thiosulphate (Artemia; Ag 1.25 mg/l as silver nitrate): 75.5% | Hatching percentage (%) Without thiosulphate (Artemia; Ag 1.5 mg/l as silver nitrate): 71.1% | Hatching percentage (%) With thiosulphate (Artemia; Ag 1.5 mg/l): 76.3% | Hatching percentage (%) Without thiosulphate (Artemia; Ag 1.75 mg/l as silver nitrate, hatching is delayed (maximal HP not reached after 24 h)): 69.9* % | Hatching percentage (%) Without thiosulphate (Artemia; Ag 2.0 mg/l as silver nitrate, hatching is delayed (maximal HP not reached after 24 h)): 65.0* % | Hatching percentage (%) With thiosulphate (Artemia; Ag 2.0 mg/l): 74.3% | Hatching percentage (%) Without thiosulphate (Artemia; Ag 2.5 mg/l as silver nitrate, hatching is delayed (maximal HP not reached after 24 h)): 50.0* % | Hatching percentage (%) With thiosulphate (Artemia; Ag 2.5 mg/l): 75.6% | Hatching percentage (%) Without thiosulphate (Artemia; Ag 5.0 mg/l as silver nitrate, hatching is delayed (maximal HP not reached after 24 h)): 28.0* % | Hatching percentage (%) With thiosulphate (Artemia; Ag 5.0 mg/l): 77.6% | Hatching percentage (%) Without thiosulphate (Artemia; Ag 10.0 mg/l as silver nitrate): 0% | Hatching percentage (%) With thiosulphate (Artemia; Ag 10.0 mg/l): 77.1% | hatching of the Artemia naupllii (Artemia; more than 2 mg/l till at least 10 mg/l Ag, thiosulphate 4 mol per 1 mol AgNO3): still not affected | hatching of Artemia nauplii (Artemia; very high concentrations (> 10 mg/l), without thiosulphate): do not hatch at all | decrease of Vibrio sp. in the hatching medium (Vibrio sp. [1]; 0.1 mg Ag per liter, with or without thiosulphate, no berberine): usually not sufficient to decrease the Vibrio sp.
